For 27 molecules, IC50 results are on record in patent US20240158392A1 (Janssen Biotech, Inc., priority 2021, published 2024).

What is called IC50 is the concentration at which inhibition is half-maximal.

Assay [1] concerns the target T1, SIK2 (Homo sapiens, UniProt Q9H0K1). Description: SIK2 Enzymatic Assay Version 1 (ADP Glo). The assay is classed as biochemical. Conditions: enzyme 0.6 nM, 160 μM ATP and 140 μM HDAC5tide (each 2× final concentration); 30 minutes pre-incubation, 4 hours; ADPGlo luminescence; read-out: SIK2 ADP Glo IC50 (μM) (Test Example 1). The method, then: All steps were performed at room temperature. Compounds were pre-plated onto an assay plate using an Echo acoustic dispenser (Labcyte, E550 or E555) at 20 nL per well. Enzyme prepared in Assay Buffer at 0.6 nM (2× final concentration) was added at 2 μL per well using the Multidrop Combi (Thermo Fisher—used for all additions in this assay) to the assay plate, spun for 1 min at 800-850 rpm (Allegra 6KR Beckman Coulter centrifuge), and incubated with compound for 30 minutes.
One column of wells was dedicated to a no-peptide negative control (containing only ATP). ADPGlo Reagent (prepared and aliquoted as per manufacturer instructions) was then added at 2 μL per well, spun and incubated for 40 min. ADPGlo Detection (prepared and aliquoted as per manufacturer instructions) was added at 2 μL per well to the assay plate, which was spun and incubated for at least 30 min. The plate was then read on the Pherastar (BMG Labtech) using a luminescence read. Gain was set by the 0.1 mM concentration of ADP wells in the ADP/ATP standard curve plate generated as per manufacturer instructions.
A general note: ADP-Glo turns the ADP formed in a reaction into a luminescent signal.

For assay [2], the target named is T1, SIK2. Kind of assay: SIK2 Enzymatic Assay High Version 2 (High ATP). The assay is classed as biochemical. The conditions noted are these: enzyme 6 nM, 6 mM ATP and 400 μM HDAC5tide (each 2× final concentration); 30 minutes pre-incubation, 2 hours; ADP-Glo Max luminescence; read-out: SIK2 high ATP IC50 (μM) (Test Example 2). The procedure, abridged:
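At room temperature, enzyme (6 nM, 2× final) was preincubated with compound for 30 min, then 6 mM ATP and 400 μM HDAC5tide (both 2× final) were added for 2 h. ADP formed was measured by ADP-Glo Max (2 h reagent, 1 h detection) using luminescence.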

T1 sequence (Q9H0K1 whole entry, species assumed): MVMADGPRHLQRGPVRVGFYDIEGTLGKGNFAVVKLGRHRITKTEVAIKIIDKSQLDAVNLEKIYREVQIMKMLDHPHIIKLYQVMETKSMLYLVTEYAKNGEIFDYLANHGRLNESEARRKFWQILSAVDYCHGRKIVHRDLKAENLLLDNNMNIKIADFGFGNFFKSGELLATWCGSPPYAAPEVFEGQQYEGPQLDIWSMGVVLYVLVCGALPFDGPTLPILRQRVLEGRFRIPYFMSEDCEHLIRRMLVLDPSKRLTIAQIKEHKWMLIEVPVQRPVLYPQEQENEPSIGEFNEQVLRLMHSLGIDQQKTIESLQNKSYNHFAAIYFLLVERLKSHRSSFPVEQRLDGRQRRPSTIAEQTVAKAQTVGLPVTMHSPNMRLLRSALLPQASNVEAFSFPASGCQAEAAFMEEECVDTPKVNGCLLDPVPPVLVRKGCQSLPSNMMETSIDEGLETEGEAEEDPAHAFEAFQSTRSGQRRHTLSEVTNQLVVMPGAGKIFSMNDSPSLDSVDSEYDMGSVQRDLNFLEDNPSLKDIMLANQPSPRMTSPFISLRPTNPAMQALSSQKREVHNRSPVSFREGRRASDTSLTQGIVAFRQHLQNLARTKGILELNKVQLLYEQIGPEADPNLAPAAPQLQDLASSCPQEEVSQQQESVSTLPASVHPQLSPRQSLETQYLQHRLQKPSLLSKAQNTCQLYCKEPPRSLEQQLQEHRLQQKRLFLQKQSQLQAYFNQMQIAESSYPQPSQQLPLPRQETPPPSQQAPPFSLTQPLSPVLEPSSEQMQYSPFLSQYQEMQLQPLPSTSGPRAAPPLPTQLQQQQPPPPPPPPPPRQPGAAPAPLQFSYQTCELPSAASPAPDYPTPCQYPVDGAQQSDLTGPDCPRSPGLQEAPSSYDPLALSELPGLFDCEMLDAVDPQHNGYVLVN

Consider `N#Cc1cc(-c2ccn3nc(NC(=O)C4CC4)cc3c2)c(N2CCC(O)(C(F)(F)F)C2)cn1` (racemic) [Example 87, (rac-)-N-[5-[2-cyano-5-[3-hydroxy-3-(trifluoromethyl)pyrrolidin-1-yl]-4-pyridyl]pyrazolo[1,5-a]pyridin-2-yl]cyclopropanecarboxamide], for which the concentration for half-maximal inhibition (IC50) at SIK2 [1] was found to be 0.118 µM. On the same count and under the same terms, the result for `N#Cc1cc(-c2ccn3nc(NC(=O)C4CC4)cc3c2)c(O[C@H]2CCN[C@@H](C(F)(F)F)C2)cn1` (single isomer, unassigned) [Example 14, N-(5-(2-cyano-5-(((2*R,4*S)-2-(trifluoromethyl)piperidin-4-yl)oxy)pyridin-4-yl)pyrazolo[1,5-a]pyridin-2-yl)cyclopropanecarboxamide] reads 0.0249 µM; that for `N#Cc1cc(-c2ccn3nc(NC(=O)C4CC4)cc3c2)c(O[C@H]2C[C@H]3C[C@@H]2CN3)cn1` (single isomer, unassigned) [Example 18, N-[5-[5-[[(1*R,4*R,5*S)-2-azabicyclo[2.2.1]heptan-5-yl]oxy]-2-cyano-4-pyridyl]pyrazolo[1,5-a]pyridin-2-yl]cyclopropanecarboxamide], 0.00158 µM; that for `CC(C)(C)OC(=O)N1CCC(COc2cnc(C#N)cc2-c2ccn3nc(NC(=O)C4CC4)cc3c2)C1` (stereo in doubt) [Example 35, tert-butyl (3R)-3-[[6-cyano-4-[2-(cyclopropanecarbonylamino)pyrazolo[1,5-a]pyridin-5-yl]-3-pyridyl]oxymethyl]pyrrolidine-1-carboxylate], 0.0354 µM. Still for that read-out and setting: the value for `CN(C)CCNc1cnc(C#N)cc1-c1ccn2nc(NC(=O)C3CC3)cc2c1` [Example 2, N-[5-[2-cyano-5-(2-dimethylaminoethylamino)-4-pyridyl]pyrazolo[1,5-a]pyridin-2-yl]cyclopropanecarboxamide] was 0.0691 µM; that for `N#Cc1cc(-c2ccn3nc(NC(=O)C4CC4)cc3c2)c(N2CC(CO)C2)cn1` [Example 3, N-[5-[2-cyano-5-[3-(hydroxymethyl)azetidin-1-yl]-4-pyridyl]pyrazolo[1,5-a]pyridin-2-yl]cyclopropanecarboxamide] was 0.0183 µM; that for `N#Cc1cc(-c2ccn3nc(NC(=O)C4CC4)cc3c2)c(OC2(C(F)(F)F)CCNCC2)cn1` [Example 9, N-(5-(2-cyano-5-((4-(trifluoromethyl)piperidin-4-yl)oxy)pyridin-4-yl)pyrazolo[1,5-a]pyridin-2-yl)cyclopropanecarboxamide] was 0.152 µM. For `CN1CCOC[C@H](Oc2cnc(C#N)cc2-c2ccn3nc(NC(=O)C4CC4)cc3c2)C1` [Example 12, N-[5-[2-cyano-5-[[(6R)-4-methyl-1,4-oxazepan-6-yl]oxy]-4-pyridyl]pyrazolo[1,5-a]pyridin-2-yl]cyclopropanecarboxamide], the IC50 at SIK2 [1] was found to be 0.0133 µM. The same measure, in the same setting: the result for `N#Cc1cc(-c2ccn3nc(NC(=O)C4CC4)cc3c2)c(O[C@@H]2CNCCOC2)cn1` [Example 21, N-[5-[2-cyano-5-[[(6R)-1,4-oxazepan-6-yl]oxy]-4-pyridyl]pyrazolo[1,5-a]pyridin-2-yl]cyclopropanecarboxamide] reads 0.0213 µM; that for `N#Cc1cc(-c2ccn3nc(NC(=O)C4CC4)cc3c2)c(OC[C@@H]2CC[C@@H](N)C2)cn1` [Example 22, N-[5-[5-[[(1R,3R)-3-aminocyclopentyl]methoxy]-2-cyano-4-pyridyl]pyrazolo[1,5-a]pyridin-2-yl]cyclopropanecarboxamide], 0.00121 µM; that for `N#Cc1cc(-c2ccn3nc(NC(=O)C4CC4)cc3c2)c(O[C@@H]2CCN(C3CC3)C2)cn1` [Example 25, N-[5-[2-cyano-5-[(3R)-1-cyclopropylpyrrolidin-3-yl]oxy-4-pyridyl]pyrazolo[1,5-a]pyridin-2-yl]cyclopropanecarboxamide], 0.00145 µM. `CN1CCOC[C@@H](Oc2cnc(C#N)cc2-c2ccn3nc(NC(=O)C4CC4)cc3c2)C1` [Example 26, N-[5-[2-cyano-5-[[(6S)-4-methyl-1,4-oxazepan-6-yl]oxy]-4-pyridyl]pyrazolo[1,5-a]pyridin-2-yl]cyclopropanecarboxamide]: at SIK2 [1], the IC50 stood at 0.0123 µM.

In the case of `CN1C[C@@H](Oc2cnc(C#N)cc2-c2ccn3nc(NC(=O)C4CC4)cc3c2)C[C@@H](C(F)(F)F)C1` [Example 28, N-[5-[2-cyano-5-[[(3S,5R)-1-methyl-5-(trifluoromethyl)-3-piperidyl]oxy]-4-pyridyl]pyrazolo[1,5-a]pyridin-2-yl]cyclopropanecarboxamide], on SIK2 [1], the IC50 worked out at 0.00922 µM. Turning to `CC(C)(C)OC(=O)N1CC2(CC(Oc3cnc(C#N)cc3-c3ccn4nc(NC(=O)C5CC5)cc4c3)C2)C1` [Example 34, tert-butyl 2-[[6-cyano-4-[2-(cyclopropanecarbonylamino)pyrazolo[1,5-a]pyridin-5-yl]-3-pyridyl]oxy]-6-azaspiro[3.3]heptane-6-carboxylate], the IC50 at SIK2 [1] stood at 0.0227 µM.

In the case of `CC(C)(C)OC(=O)COc1cnc(C#N)cc1-c1ccn2nc(NC(=O)C3CC3)cc2c1` [Example 55, tert-butyl 2-[[6-Cyano-4-[2-(cyclopropanecarbonylamino)pyrazolo[1,5-a]pyridin-5-yl]-3-pyridyl]oxy]acetate], the IC50 at SIK2 [1] turned out to be 0.0096 µM. Still for that read-out and setting: the result for `N#Cc1cc(-c2ccn3nc(NC(=O)C4CC4)cc3c2)c(OCc2ccc(C(F)(F)F)nc2)cn1` [Example 61, N-[5-[2-cyano-5-[[6-(trifluoromethyl)-3-pyridyl]methoxy]-4-pyridyl]pyrazolo[1,5-a]pyridin-2-yl]cyclopropanecarboxamide] reads 0.0103 µM; that for `N#Cc1cc(-c2ccn3nc(NC(=O)C4CC4)cc3c2)c(OCc2ccnc(C(F)(F)F)c2)cn1` [Example 62, N-[5-[2-cyano-5-[[2-(trifluoromethyl)-4-pyridyl]methoxy]-4-pyridyl]pyrazolo[1,5-a]pyridin-2-yl]cyclopropanecarboxamide], more than 5 µM.

Consider `CN1CCC[C@H](Oc2cnc(C#N)cc2-c2ccn3nc(NC(=O)C4CC4)cc3c2)C1` [Example 65, N-[5-[2-cyano-5-[[(3S)-1-methyl-3-piperidyl]oxy]-4-pyridyl]pyrazolo[1,5-a]pyridin-2-yl]cyclopropanecarboxamide], for which the IC50 at SIK2 [1] turned out to be 0.00871 µM. On to `CN1CC[C@H](CNc2cnc(C#N)cc2-c2ccn3nc(NC(=O)C4CC4)cc3c2)C1` [Example 71, N-[5-[2-cyano-5-[[(3R)-1-methylpyrrolidin-3-yl]methylamino]-4-pyridyl]pyrazolo[1,5-a]pyridin-2-yl]cyclopropanecarboxamide], for which, on SIK2 [1], the 50% inhibitory concentration (IC50) turned out to be 0.0577 µM. Still for that read-out and setting: the value for `CN(C)CC1CN(c2cnc(C#N)cc2-c2ccn3nc(NC(=O)C4CC4)cc3c2)C1` [Example 72, N-[5-[2-cyano-5-[3-(dimethylaminomethyl)azetidin-1-yl]-4-pyridyl]pyrazolo[1,5-a]pyridin-2-yl]cyclopropanecarboxamide] was 0.15 µM; that for `CNC(=O)C1CN(c2cnc(C#N)cc2-c2ccn3nc(NC(=O)C4CC4)cc3c2)C1` [Example 73, 1-[6-cyano-4-[2-(cyclopropanecarbonylamino)pyrazolo[1,5-a]pyridin-5-yl]-3-pyridyl]-N-methyl-azetidine-3-carboxamide] was 0.0846 µM. For `CC(C)(O)C1CN(c2cnc(C#N)cc2-c2ccn3nc(NC(=O)C4CC4)cc3c2)C1` [Example 74, N-[5-[2-cyano-5-[3-(1-hydroxy-1-methyl-ethyl)azetidin-1-yl]-4-pyridyl]pyrazolo[1,5-a]pyridin-2-yl]cyclopropanecarboxamide], the half-inhibitory concentration (IC50) at SIK2 [1] was 0.00654 µM.

In the case of `N#Cc1cc(-c2ccn3nc(NC(=O)C4CC4)cc3c2)c(N2CC(O)(C(F)(F)F)C2)cn1` [Example 75, N-[5-[2-cyano-5-[3-hydroxy-3-(trifluoromethyl)azetidin-1-yl]-4-pyridyl]pyrazolo[1,5-a]pyridin-2-yl]cyclopropanecarboxamide], the IC50 on SIK2 [1] came out at 0.398 µM. On the same count and under the same terms, the result for `N#Cc1cc(-c2ccn3nc(NC(=O)C4CC4)cc3c2)c(NCC2CC2)cn1` [Example 76, N-[5-[2-cyano-5-(cyclopropylmethylamino)-4-pyridyl]pyrazolo[1,5-a]pyridin-2-yl]cyclopropanecarboxamide] reads 0.0255 µM; that for `Cn1ccc(Nc2cnc(C#N)cc2-c2ccn3nc(NC(=O)C4CC4)cc3c2)n1` [Example 77, N-[5-[2-cyano-5-[(1-methylpyrazol-3-yl)amino]-4-pyridyl]pyrazolo[1,5-a]pyridin-2-yl]cyclopropanecarboxamide], 0.242 µM. On to “(*S)-4-[[6-(difluoromethoxy)-4-[2-[(2,6-dimethylpyrimidin-4-yl)amino]pyrazolo[1,5-a]pyridin-5-yl]-3-pyridyl]oxymethyl]-1,5,5-trimethyl-pyrrolidin-2-one [Example 741]”, for which, at SIK2 [2], the concentration for half-maximal inhibition (IC50) worked out at 0.00266 µM. On the same count and under the same terms, the result for “N-[5-[2-cyano-5-[[(1R,5S,7s)-9-methyl-3-oxa-9-azabicyclo[3.3.1]nonan-7-yl]oxy]-4-pyridyl]pyrazolo[1,5-a]pyridin-2-yl]cyclopropanecarboxamide [Example 656]” reads 0.132 µM.
